Measured values from patent US20240139149A1, “THERAPEUTIC USES OF UROLITHIN DERIVATIVES” (Vandria SA, priority 2022, published 2024).

Key:
[1] = test system: APTK-s.c. tumors; test: Subcutaneous APTK organoid tumors, UA diet, with TIL analysis; format: in vivo, mouse
Procedure: Urolithin A containing diet (2.28 g/kg) or AIN− 93G control food (Brogaarden) were given ad libitum once introduced for experimental purpose at the indicated time.
For subcutaneous colorectal cancers, APTK organoids were mechanistically disrupted, incubated with Accutase to generate a single cell suspension and reconstituted in PBS 20% Matrigel (Corning) for subcutaneous transplantation. Tumor sizes were measured at the indicated time after transplantation and tumor volume quantified as ½(width2×length). Urolithin A or control food regiment were initiated either one week before tumor challenge or 11 days after tumor development. Therapeutic diets were maintained throughout the experiment unless indicated otherwise.
Tumors were minced and digested with Tumor & Tissue Dissociation Reagent (BD Horizon) for 30 min. The remaining organ pieces were filtered through a 70 m cell strainer. Cells were then washed with PBS 1% BSA and 2 mM EDTA. Immune cells were enriched on a 30%/40%/75% Percoll gradient after a 1700 rpm 17 min centrifugation. Then, tumor immune filtrates or activated T cells were stained with Fixable Viability Dye-eF780 (65-0865-14; eBioscience), αCD45-FITC (30-F11; 11-0451-85; eBioscience), αCD11b-BV650 (M1/70; 56340; BD) α-CD11c-BV785 (HL3; 563735; BD), aLy6G-BV605 (53-6.7; 563005; BD), aLy6C-AF700 (HK1.4; 128024; Biolegend), aF4/80-PE (BM8; 12-4801-82, eBioscience), aPD-L1-PECy7 (MIH5; 25-5982-80, eBioscience); or with Fixable Viability Dye-eF780 (ebioscience), αCD45-BV786 (30-F11; 564225; BD), αCD4-BUV496 (GK1.5; 564667; BD), αCD8-BV605 (100744; Biolegend), aPD1-APC (J43; 17-9985-82; eBioscience), aTIM-3-PECy7 (RMT3-23; 119715; Biolegend), aCTLA4-PE (UC10-4B9; 106305; Biolegend) and aLag3-BV421 (C9B7W; 125221, Biolegend); or with Fixable Viability Dye-eF780 (eBioscience), αCD4-FITC (H129.19; 553650; BD), αCD8-APC (53-6.7; 17-0081-83; eBioscience), αCD44-AF400 (IM7; 103026; Biolegend), αCD62L-BV785 (MEL-14; 104440; Biolegend), αSca-1-PerCP-Cy5.5 (D7; 45-5981-82; eBioscience), αCD95-PE (Jo2; 554258; BD); or with Fixable Viability Dye-eF780 (eBioscience), αCD8-BV650 (53-6.7; 563234; BD), αCD4-BUV496 (GK1.5; 564667; BD), αCD127-APC (A7R34; 17-1271-82; eBioscience), αCD95-FITC (SA367H8;152605; Biolegend), αCD44-AF400 (IM7; 103026; Biolegend), αCD62L-BV785 (MEL-14; 104440; Biolegend), αSca-1-PerCP-Cy5.5 (D7; 45-5981-82; eBioscience) followed by intracellular staining of aTCF1-PE (S33-966; 564217; BD), or PGC-1α (sc-518025; D-5; santa cruz), or aCyclinD1 (MA5-28534, DCS-6; Invitrogen) with transcription factor buffer set kit (BD Biosciences). To study cytokine expression, tumor immune infiltrates were stimulated ex vivo with 20 ng/mL PMA and 1 g/mL Ionomycin (Sigma) for 3 h in T cell activation medium with Brefeldin A (Biolegend).

[2] = test system: human CD8+ T cells; test: Human T cells stimulated with αCD3/αCD28 in presence of UA; format: cell-based
Procedure: Splenic murine T cells were isolated from mice aged 6-20 weeks by negative selection with EasySep mouse T cell isolation kit (Stem cell) according to the manufacturer's instructions. To monitor T cell proliferation, purified T cells were loaded with CellTrace Violet (C34557 ThermoFisher Scientific). T cell activation was initiated using αCD3/CD28 activation beads (11456D; ThermoFisher Scientific) at a ratio of 25 μl dynabeads per 0.5×106 T-cells. Cells were activated with 25-50 μM Urolithin A (Tocris) or DMSO in T cell activation Medium (RPMI (ThermoFisher Scientific) 10% FBS (South America origin), 10 mM Hepes (Sigma), 1×Non-Essential Amino Acid, 1 mM Sodium Pyruvate, 50 µM β-Mercaptoethanol, 100 U/mL penicillin, 100 μg/mL streptomycin and 2 mM Glutamax (ThermoFisher Scientific) for the indicated durations. In selected experiments, cells were stimulated in the presence of inhibitors, namely TCFli (ICG-001; SelleckChem; […]) and PGC-lai (SR-18292, Sigma-Aldrich; […]). For subsequent analysis, activating beads were magnetically removed prior antibody staining. For human T cells, peripheral blood mononuclear cells were purified with a Ficoll-Paque (GE healthcare) gradient. T cells were enriched with EasySep Human T Cell Isolation Kit (StemCell) and activated with dynabead Human T-Activator CD3/CD28 for T Cell Expansion and Activation Kit (11131D; ThermoFisher Scientific), similar to murine T cell stimulation. When the subsequent activation and expansion of CAR T cells was studied, plates were coated with 1 μg/mL anti-human CD3 (αCD3; clone OKT3) and thawed PBMC were cultivated with […] anti-human CD28 (αCD28; 15E8, both Miltenyi Biotec) containing media for three days. (NutriT media (4Cell® Nutri-T media (Sartorius) containing 0.5% penicillin/streptomycin) supplemented with IL-7 (25 U/mL) and IL-15 […] (all Miltenyi Biotec)).
Tumors were minced and digested with Tumor & Tissue Dissociation Reagent (BD Horizon) for 30 min. The remaining organ pieces were filtered through a 70 µm cell strainer. Cells were then washed with PBS 1% BSA and 2 mM EDTA. […]

[3] = C57BL/6 mice, s.c. APTK organoids, UA-supplemented diet

O=c1oc2cc(O)ccc2c2ccc(O)cc12 [UA, Urolithin A]
CD8+ T cell infiltration [1, 3]: enhanced
tumor growth [1, 3]: significantly reduced
tumor response in combination with PD-1 blockade ([1]; C57BL/6 mice, s.c. APTK tumors, UA diet plus α-PD-1): sensitized APTK tumors to PD-1 blockade
tumor suppressive effect in Pink1−/− mice ([1]; Pink1−/− mice, s.c. APTK organoids, UA diet): abrogated the tumor suppressive effect
protective effect on tumor growth in Rag1−/− mice ([1]; Rag1−/− mice (no mature T and B cells), s.c. APTK organoids, UA diet): abrogated the protective effect
CD4+ TSCM, dendritic cells, TAMs, MDSC subsets in tumors ([1]; UA diet vs control diet): no change
CD8+CD44loCD62LhiSca1hi T cells in APTK-induced tumors ([1]; UA diet vs control diet): marked increase
TCF1 expression in tumor infiltrating CD8+ T cells ([1]; UA diet vs control diet): increased expression
mitochondrial content in TIL of APTK tumors ([1]; UA diet vs control diet): increased mitochondrial content
exhaustion markers PD-1, CTLA-4 and Tim3 in CD8+ T cells ([1]; UA-fed mice): reduction
TNFα and IFNγ in tumor infiltrating CD8+ T cells ([1]; restimulated with PMA/ionomycin ex vivo): stronger induction
TCF1 expression in human CD8+ T cells ([2]; after 48 hours): increased
mitochondrial membrane potential of human CD8+ T cells ([2]; after 48 hours): decreased
frequency of human TSCM cells (CD45RA+CCR7HiCD62L+CD95+CD8+) ([2]; five out of five individual donors, 48 h): increased the frequency
